The structures appear in SMILES notation.

The target in the assay is nicotinic receptors. The assay can be described thus: Nicotinic channel receptor binding: [3H]-cystine binding to crude synaptic membranes from whole rat brain. As to conditions: 1.25 nM [3H-cystine], about 60 min, about 4° C. As for the experimental part:
Nicotinic Channel Receptor Binding Protocol:
The activity of the compounds claimed herein at the nicotinic receptor can be accomplished by the following assay.
Binding of […] to nicotinic receptors was accomplished using crude synaptic membrane preparations from whole rat brain (Pabreza et al. Molecular Pharmacol., 1990, 39:9). Washed membranes were stored at about -80° C. prior to use. Frozen aliquots were slowly thawed and resuspended in 20 volumes of buffer (containing: […] NaCl, 5 mM KCl, 2 mM MgCl2, 2 mM Tris-Cl, ph 7.4 @4° C.). After centrifuging at 20,000×g for 15 minutes, the pellets were resuspended in about 30 volumes of buffer. Homogenate (containing about 125-150 ug protein) was added to tubes containing concentrations of test compound and [^3 H-cystine] (1.25 nM) in a final volume of 500 uL. Samples were incubated for about 60 minutes at about 4° C., then rapidly filtered through GF/B filters presoaked in 0.5% polyethylimine using 3×4 mL of ice cold buffer. The filters were counted.
For `Clc1nccnc1O[C@H]1CN2CCC[C@@H]1C2` (relative stereo) [Compound 19, 3-Chloro-2-[endo-(+,-)-6-(1-azabicyclo[3.2.1]octyloxy)]-pyrazine], the Ki (as a rule, the dissociation constant of the complex between target and ligand, obtained from inhibition or displacement) was 2780 nM.

On to `CCCCSc1nccnc1OCCN(C)C` [Compound 17], for which the affinity, expressed as Ki, was 21400 nM.

`CCCCSc1nccnc1OCC[N+](C)(C)C` [Compound 18, 3-(1-Butylthio)-2-(2-(trimethylamino)ethoxy)pyrazine iodide] displayed a Ki of 580 nM.

For the molecule `CN(C)CCOc1cnccn1` [Compound 26, 2-(2-Dimethylaminoethoxy)pyrazine], the Ki was 130 nM.

Molecule `C[N+](C)(C)CCOc1cnccn1` [Compound 27, 2-(2-Trimethylaminoethoxy)pyrazine iodide] registered a Ki of 110 nM. The Ki values of the last two molecules are within 1.5-fold of each other.

The values are drawn from patent publication US6194416A, “Heterocyclic compounds and their use” (Eli Lilly and Company, priority 1997, dated 2001).
